Source: the NIST ThermoML archive (doi:10.1016/j.jct.2016.06.012)

Assay: xn = mol fraction of the nth substance listed
Details: 100 kPa, Liquid; for viscosity: Capillary tube (Ostwald / Ubbelohde) method; for mass density: Vibrating tube method

CCn1cc[n+](C)c1C.O=S(=O)([N-]S(=O)(=O)C(F)(F)F)C(F)(F)F + O=C1CCCO1
Details	mass density [kg/m3]	viscosity [mPa·s]
293.15 K, x1 = 0.0493	1186.33	2.39
293.15 K, x1 = 0.1001	1232.87	3.16
293.15 K, x1 = 0.1526	1271.98	4.27
293.15 K, x1 = 0.2001	1301.42	5.28
293.15 K, x1 = 0.3001	1350.26	8.11
293.15 K, x1 = 0.4013	1387.19	12.59
293.15 K, x1 = 0.5004	1415.28	19.41
293.15 K, x1 = 0.5995	1437.76	29.23
293.15 K, x1 = 0.6929	1455.24	40.61
293.15 K, x1 = 0.814	1473.91	57.8
293.15 K, x1 = 0.9001	1485.09	71.36
293.15 K, x1 = 1	1496.32	89.27
298.15 K, x1 = 0.0493	1181.34	2.2
298.15 K, x1 = 0.1001	1227.92	2.88
298.15 K, x1 = 0.1526	1267.02	3.89
298.15 K, x1 = 0.2001	1296.47	4.75
298.15 K, x1 = 0.3001	1345.33	7.21
298.15 K, x1 = 0.4013	1382.26	10.79
298.15 K, x1 = 0.5004	1410.36	16.23
298.15 K, x1 = 0.5995	1432.85	23.73
298.15 K, x1 = 0.6929	1450.35	32.36
298.15 K, x1 = 0.814	1469.03	45.73
298.15 K, x1 = 0.9001	1480.21	56.03
298.15 K, x1 = 1	1491.47	70.77
303.15 K, x1 = 0.0493	1176.42	2.02
303.15 K, x1 = 0.1001	1222.97	2.64
303.15 K, x1 = 0.1526	1262.07	3.55
303.15 K, x1 = 0.2001	1291.53	4.31
303.15 K, x1 = 0.3001	1340.4	6.49
303.15 K, x1 = 0.4013	1377.35	9.66
303.15 K, x1 = 0.5004	1405.48	13.87
303.15 K, x1 = 0.5995	1427.99	19.69
303.15 K, x1 = 0.6929	1445.51	26.32
303.15 K, x1 = 0.814	1464.21	36.61
303.15 K, x1 = 0.9001	1475.4	45.12
303.15 K, x1 = 1	1486.67	57.02
308.15 K, x1 = 0.0493	1171.5	1.87
308.15 K, x1 = 0.1001	1218.03	2.42
308.15 K, x1 = 0.1526	1257.12	3.23
308.15 K, x1 = 0.2001	1286.58	3.92
308.15 K, x1 = 0.3001	1335.47	5.84
308.15 K, x1 = 0.4013	1372.45	8.44
308.15 K, x1 = 0.5004	1400.6	11.97
308.15 K, x1 = 0.5995	1423.13	16.7
308.15 K, x1 = 0.6929	1440.66	21.94
308.15 K, x1 = 0.814	1459.39	30.04
308.15 K, x1 = 0.9001	1470.6	36.72
308.15 K, x1 = 1	1481.87	46.6
313.15 K, x1 = 0.0493	1166.58	1.74
313.15 K, x1 = 0.1001	1213.09	2.24
313.15 K, x1 = 0.1526	1252.18	2.97
313.15 K, x1 = 0.2001	1281.64	3.59
313.15 K, x1 = 0.3001	1330.56	5.24
313.15 K, x1 = 0.4013	1367.56	7.44
313.15 K, x1 = 0.5004	1395.73	10.46
313.15 K, x1 = 0.5995	1418.28	14.19
313.15 K, x1 = 0.6929	1435.84	18.31
313.15 K, x1 = 0.814	1454.58	24.98
313.15 K, x1 = 0.9001	1465.81	30.3
313.15 K, x1 = 1	1477.09	38.62
318.15 K, x1 = 0.0493	1161.65	1.62
318.15 K, x1 = 0.1001	1208.15	2.07
318.15 K, x1 = 0.1526	1247.24	2.72
318.15 K, x1 = 0.2001	1276.71	3.27
318.15 K, x1 = 0.3001	1325.64	4.7
318.15 K, x1 = 0.4013	1362.67	6.63
318.15 K, x1 = 0.5004	1390.87	9.21
318.15 K, x1 = 0.5995	1413.44	12.26
318.15 K, x1 = 0.6929	1431.02	15.7
318.15 K, x1 = 0.814	1449.79	21.08
318.15 K, x1 = 0.9001	1461.03	25.54
318.15 K, x1 = 1	1472.32	32.33
323.15 K, x1 = 0.0493	1156.72	1.52
323.15 K, x1 = 0.1001	1203.21	1.9
323.15 K, x1 = 0.1526	1242.31	2.5
323.15 K, x1 = 0.2001	1271.78	3.02
323.15 K, x1 = 0.3001	1320.73	4.29
323.15 K, x1 = 0.4013	1357.79	6.05
323.15 K, x1 = 0.5004	1386.01	8.19
323.15 K, x1 = 0.5995	1408.61	10.68
323.15 K, x1 = 0.6929	1426.21	13.74
323.15 K, x1 = 0.814	1445.01	18.23
323.15 K, x1 = 0.9001	1456.26	21.94
323.15 K, x1 = 1	1467.56	27.06

CCCCn1cc[n+](C)c1C.O=S(=O)([N-]S(=O)(=O)C(F)(F)F)C(F)(F)F + O=C1CCCO1
Details	mass density [kg/m3]	viscosity [mPa·s]
293.15 K, x1 = 0.0532	1183	2.62
293.15 K, x1 = 0.1004	1219.51	3.65
293.15 K, x1 = 0.1504	1250.59	4.95
293.15 K, x1 = 0.1999	1275.61	6.54
293.15 K, x1 = 0.2988	1314.04	10.79
293.15 K, x1 = 0.4006	1342.77	17.78
293.15 K, x1 = 0.5005	1364.2	26.66
293.15 K, x1 = 0.5999	1381	40.38
293.15 K, x1 = 0.7	1394.71	56.57
293.15 K, x1 = 0.8013	1406.18	79.17
293.15 K, x1 = 0.8986	1415.43	102.22
293.15 K, x1 = 1	1423.72	133.59
298.15 K, x1 = 0.0532	1178.1	2.43
298.15 K, x1 = 0.1004	1214.61	3.29
298.15 K, x1 = 0.1504	1245.77	4.48
298.15 K, x1 = 0.1999	1270.81	5.77
298.15 K, x1 = 0.2988	1309.26	9.32
298.15 K, x1 = 0.4006	1338.05	14.92
298.15 K, x1 = 0.5005	1359.5	22.02
298.15 K, x1 = 0.5999	1376.34	32.56
298.15 K, x1 = 0.7	1390.08	44.79
298.15 K, x1 = 0.8013	1401.56	60.93
298.15 K, x1 = 0.8986	1410.81	78.62
298.15 K, x1 = 1	1419.13	101.34
303.15 K, x1 = 0.0532	1173.22	2.23
303.15 K, x1 = 0.1004	1209.75	2.98
303.15 K, x1 = 0.1504	1240.94	4.01
303.15 K, x1 = 0.1999	1266	5.11
303.15 K, x1 = 0.2988	1304.49	8.06
303.15 K, x1 = 0.4006	1333.32	12.72
303.15 K, x1 = 0.5005	1354.8	18.27
303.15 K, x1 = 0.5999	1371.67	26.34
303.15 K, x1 = 0.7	1385.42	35.8
303.15 K, x1 = 0.8013	1396.93	48.32
303.15 K, x1 = 0.8986	1406.19	61.12
303.15 K, x1 = 1	1414.52	77.86
308.15 K, x1 = 0.0532	1168.35	2.05
308.15 K, x1 = 0.1004	1204.91	2.72
308.15 K, x1 = 0.1504	1236.11	3.65
308.15 K, x1 = 0.1999	1261.18	4.57
308.15 K, x1 = 0.2988	1299.72	7.1
308.15 K, x1 = 0.4006	1328.58	10.83
308.15 K, x1 = 0.5005	1350.1	15.54
308.15 K, x1 = 0.5999	1366.99	21.9
308.15 K, x1 = 0.7	1380.78	29.22
308.15 K, x1 = 0.8013	1392.3	39.19
308.15 K, x1 = 0.8986	1401.58	48.88
308.15 K, x1 = 1	1409.91	61.73
313.15 K, x1 = 0.0532	1163.43	1.9
313.15 K, x1 = 0.1004	1200.07	2.49
313.15 K, x1 = 0.1504	1231.24	3.28
313.15 K, x1 = 0.1999	1256.38	4.11
313.15 K, x1 = 0.2988	1294.96	6.29
313.15 K, x1 = 0.4006	1323.85	9.4
313.15 K, x1 = 0.5005	1345.39	13.32
313.15 K, x1 = 0.5999	1362.33	18.32
313.15 K, x1 = 0.7	1376.14	24.44
313.15 K, x1 = 0.8013	1387.67	32.14
313.15 K, x1 = 0.8986	1396.98	39.87
313.15 K, x1 = 1	1405.31	49.77
318.15 K, x1 = 0.0532	1158.58	1.74
318.15 K, x1 = 0.1004	1195.18	2.3
318.15 K, x1 = 0.1504	1226.41	3.06
318.15 K, x1 = 0.1999	1251.54	3.74
318.15 K, x1 = 0.2988	1290.17	5.63
318.15 K, x1 = 0.4006	1319.11	8.18
318.15 K, x1 = 0.5005	1340.7	11.52
318.15 K, x1 = 0.5999	1357.64	15.42
318.15 K, x1 = 0.7	1371.48	20.51
318.15 K, x1 = 0.8013	1383.04	26.78
318.15 K, x1 = 0.8986	1392.36	32.9
318.15 K, x1 = 1	1400.7	40.7
323.15 K, x1 = 0.0532	1153.71	1.63
323.15 K, x1 = 0.1004	1190.32	2.12
323.15 K, x1 = 0.1504	1221.58	2.72
323.15 K, x1 = 0.1999	1246.73	3.39
323.15 K, x1 = 0.2988	1285.42	5.03
323.15 K, x1 = 0.4006	1314.4	7.22
323.15 K, x1 = 0.5005	1336.03	10.06
323.15 K, x1 = 0.5999	1352.99	13.17
323.15 K, x1 = 0.7	1366.86	17.44
323.15 K, x1 = 0.8013	1378.44	22.39
323.15 K, x1 = 0.8986	1387.78	27.46
323.15 K, x1 = 1	1396.13	33.69
